From US7786141B2 (Vertex Pharmaceuticals Incorporated, priority 2004, dated 2010) come the findings set out here.

The structures appear in SMILES notation.

Assay [1] concerns the target T1, M4 muscarinic receptor (Homo sapiens, UniProt P08173).
T1 construct: expressed in transfected cells; host or cells: CHO (M4-CHO)
T1 sequence (P08173 1-479): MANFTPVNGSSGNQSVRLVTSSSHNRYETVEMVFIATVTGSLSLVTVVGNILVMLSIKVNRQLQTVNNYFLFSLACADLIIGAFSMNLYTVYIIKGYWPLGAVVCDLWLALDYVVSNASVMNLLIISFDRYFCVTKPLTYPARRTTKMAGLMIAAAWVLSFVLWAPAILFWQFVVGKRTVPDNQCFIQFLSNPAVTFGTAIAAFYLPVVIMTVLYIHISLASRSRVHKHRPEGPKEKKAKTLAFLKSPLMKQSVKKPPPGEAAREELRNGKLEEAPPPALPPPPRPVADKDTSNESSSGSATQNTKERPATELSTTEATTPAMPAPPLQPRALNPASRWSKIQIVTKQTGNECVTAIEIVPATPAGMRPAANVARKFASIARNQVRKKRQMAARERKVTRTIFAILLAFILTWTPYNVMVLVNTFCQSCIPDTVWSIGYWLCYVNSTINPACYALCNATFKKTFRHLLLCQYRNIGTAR
Put plainly: Functional mobilization of intracellular calcium (FLIPR) in M4-CHO cells. The assay is classed as cell-based. The settings on record: M4 receptor, calcium mobilization; for Emax: read-out: M4 Efficacy. In outline:
(§1)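 Two modes: direct compound addition for agonism, or 15 min compound pre-incubation (or co-application) before carbachol at EC80 for inhibition. Calcium signal from Fluo-3 AM or Calcium 3 dye in CHO cells, 1 mM probenecid, pH 7.4, read 60 sec at 488/540 nm; DMSO 0.5% final.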
On the technique in general: Calcium assays in cells follow changes in intracellular calcium, usually with a dye or a luminescent sensor.

In assay [2] the target is T2, M1 muscarinic receptor (Homo sapiens, UniProt P11229).
T2 construct: expressed in transfected cells; host or cells: CHO (M1-CHO)
T2 sequence (P11229 1-460): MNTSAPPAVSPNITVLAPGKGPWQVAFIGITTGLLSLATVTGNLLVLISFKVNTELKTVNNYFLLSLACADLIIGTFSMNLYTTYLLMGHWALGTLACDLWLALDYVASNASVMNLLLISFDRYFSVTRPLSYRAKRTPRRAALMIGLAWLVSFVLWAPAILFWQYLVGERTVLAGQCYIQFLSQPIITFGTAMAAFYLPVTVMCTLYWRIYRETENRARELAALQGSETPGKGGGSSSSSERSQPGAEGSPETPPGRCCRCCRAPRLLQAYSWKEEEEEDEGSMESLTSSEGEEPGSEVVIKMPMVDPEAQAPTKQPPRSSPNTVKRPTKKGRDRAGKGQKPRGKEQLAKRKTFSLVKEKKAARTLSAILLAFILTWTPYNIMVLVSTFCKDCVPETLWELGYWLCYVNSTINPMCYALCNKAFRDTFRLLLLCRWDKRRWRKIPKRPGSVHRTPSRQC
Description: Functional mobilization of intracellular calcium (FLIPR) in M1-CHO cells. It is filed as cell-based. The settings on record: M1 receptor, calcium mobilization; for Emax: read-out: M1 Efficacy. The method in brief: as §1

As to `O=C1Nc2ccccc2C12CCN(C1CC3CCC1C3)CC2` (stereo not drawn) [compound 259], in assay [1], the “M4 Activity” value was “x (activity was measured to be greater than 1.0 μM)” and the Emax was under 65%. Besides, in assay [2], the “M1 Activity” value is given as “x (activity was measured to be greater than 1.0 μM)” and the Emax is 65 to 85%.
With `CCOC(=O)N1CCC(N2CCC3(CC2)CN(C(=O)c2ccncc2)c2ccc(F)cc23)CC1` [compound 260], in assay [1], the “M4 Activity” value is on record as “x (activity was measured to be greater than 1.0 μM)” and the Emax was under 65%. In addition, in assay [2], the “M1 Activity” value was “xxx (activity was measured to be less than 0.1 μM)” and the Emax fell in the range of 65 to 85%.
`CC(=O)N[C@H]1CC2(CCN(C3CCCCCCC3)CC2)c2ccccc21` [compound 261]: in assay [1], the “M4 Activity” value is on record as “x (activity was measured to be greater than 1.0 μM)” and the Emax is under 65%. Besides, in assay [2], the “M1 Activity” value was “xx (activity was measured to be between 0.1 μM and 1.0 μM)”; the Emax was under 65%.
Consider `CCOC(=O)N1CCC(N2CCC3(CC2)CN(C(=O)c2ccccc2OC)c2ccc(F)cc23)CC1` [compound 262], for which, in assay [1], the “M4 Activity” value is “x (activity was measured to be greater than 1.0 μM)” and the Emax was under 65%. In addition, in assay [2], the “M1 Activity” value is recorded as “x (activity was measured to be greater than 1.0 μM)” and the Emax was under 65%.
For the compound `C1=C[C@H]2C[C@H]1C[C@@H]2CN1CCC2(CCc3ccccc32)CC1` [compound 263], in assay [1], the “M4 Activity” value is given as “xxx (activity was measured to be less than 0.1 μM)” and the Emax was under 65%. In assay [2], the “M1 Activity” value is “xxx (activity was measured to be less than 0.1 μM)” and the Emax is under 65%.
With `COCCOC(=O)N1CCC(N2CCC3(CC2)CN(C(=O)N(C)C)c2ccc(F)cc23)CC1` [compound 265], in assay [1], the “M4 Activity” value is “xx (activity was measured to be between 0.1 μM and 1.0 μM)”; the Emax was under 65%. Moreover, in assay [2], the “M1 Activity” value is “xx (activity was measured to be between 0.1 μM and 1.0 μM)”; the Emax was under 65%.
Take `CCCOC(=O)N1CCCC(N2CCC3(CC2)CN(C(C)=O)c2ccc(F)cc23)CC1` (stereo not drawn) [compound 266]: in assay [1], the “M4 Activity” value is recorded as “x (activity was measured to be greater than 1.0 μM)” and the Emax is under 65%. Besides, in assay [2], the “M1 Activity” value is on record as “x (activity was measured to be greater than 1.0 μM)” and the Emax is under 65%.
For the compound `CCOC(=O)N1CCC(N2CCC3(CC2)CN(C(=O)c2ccccc2F)c2ccc(F)cc23)CC1` [compound 267], in assay [1], the “M4 Activity” value is given as “x (activity was measured to be greater than 1.0 μM)” and the Emax was under 65%. Also, in assay [2], the “M1 Activity” value is “x (activity was measured to be greater than 1.0 μM)” and the Emax was under 65%.
In the case of `CC(=O)N1CC2(CCN(C3CCOCC3)CC2)c2cc(F)ccc21` [compound 268], in assay [1], the “M4 Activity” value is recorded as “x (activity was measured to be greater than 1.0 μM)” and the Emax is under 65%. Further, in assay [2], the “M1 Activity” value was “x (activity was measured to be greater than 1.0 μM)” and the Emax is under 65%.
In the case of `CC(=O)N1CC2(CCN(C3CCN(C(=O)OC(C)C)CC3)CC2)c2cc(F)ccc21` [compound 269], in assay [1], the “M4 Activity” value is recorded as “xxx (activity was measured to be less than 0.1 μM)” and the Emax was over 85%. For the same compound, in assay [2], the “M1 Activity” value is “xxx (activity was measured to be less than 0.1 μM)” and the Emax lay in the range of 65 to 85%.
On to `CCCCC(=O)N1CC2(CCN(C3CCN(C(=O)OCC)CC3)CC2)c2cc(F)ccc21` [compound 270], for which, in assay [1], the “M4 Activity” value is given as “xxx (activity was measured to be less than 0.1 μM)” and the Emax is over 85%. In addition, in assay [2], the “M1 Activity” value is “xxx (activity was measured to be less than 0.1 μM)” and the Emax fell in the range of 65 to 85%.
On to `O=C(OC1CCCC1)N1C2CCC1CC(N1CCC3(CC1)C(=O)Nc1ccccc13)C2` (stereo not drawn) [compound 271], for which, in assay [1], the “M4 Activity” value is on record as “xxx (activity was measured to be less than 0.1 μM)” and the Emax was under 65%. In addition, in assay [2], the “M1 Activity” value is given as “xxx (activity was measured to be less than 0.1 μM)” and the Emax is 65 to 85%.
For `c1ccc2c(c1)NCC21CCN(C2CC3CCC2C3)CC1` (stereo not drawn) [compound 272], in assay [1], the “M4 Activity” value was “xxx (activity was measured to be less than 0.1 μM)” and the Emax was over 85%. Moreover, in assay [2], the “M1 Activity” value was “xxx (activity was measured to be less than 0.1 μM)” and the Emax was 65 to 85%.
In the case of `CC(=O)N[C@H]1CC2(CCN(C3CCC(c4ccccc4)CC3)CC2)c2ccccc21` (stereo partly drawn) [compound 273], in assay [1], the “M4 Activity” value was “xx (activity was measured to be between 0.1 μM and 1.0 μM)”; the Emax was over 85%. In assay [2], the “M1 Activity” value is “xxx (activity was measured to be less than 0.1 μM)” and the Emax was over 85%.
On to `CC(=O)N[C@H]1CC2(CCN([C@H]3C[C@@H]4CC[C@@H]3C4)CC2)c2ccccc21` [compound 274], for which, in assay [1], the “M4 Activity” value is recorded as “x (activity was measured to be greater than 1.0 μM)” and the Emax is over 85%. Besides, in assay [2], the “M1 Activity” value is recorded as “xxx (activity was measured to be less than 0.1 μM)” and the Emax fell in the range of 65 to 85%.
`CCOC(=O)N[C@@H]1CC2(CCN(C[C@H]3C[C@H]4CC[C@H]3C4)CC2)c2ccccc21` [compound 275]: in assay [1], the “M4 Activity” value was “xx (activity was measured to be between 0.1 μM and 1.0 μM)”; the Emax is over 85%. In assay [2], the “M1 Activity” value was “xxx (activity was measured to be less than 0.1 μM)” and the Emax fell in the range of 65 to 85%.
Turning to `Clc1ccc2c(c1)C1(CCO2)CCN(C2CCCCC2)CC1` [compound 276], in assay [1], the “M4 Activity” value was “x (activity was measured to be greater than 1.0 μM)” and the Emax lay in the range of 65 to 85%. In assay [2], the “M1 Activity” value is on record as “xxx (activity was measured to be less than 0.1 μM)” and the Emax is 65 to 85%.
Take `CCOC(=O)N1CCC(N2CCC3(CC2)CN(C(C)=O)c2ccc(-c4ccccc4C#N)cc23)CC1` [compound 277]: in assay [1], the “M4 Activity” value was “x (activity was measured to be greater than 1.0 μM)” and the Emax was under 65%. Besides, in assay [2], the “M1 Activity” value was “xxx (activity was measured to be less than 0.1 μM)” and the Emax fell in the range of 65 to 85%.
Turning to `CCOC(=O)N1C2CCC1CC(N1CCC3(CC1)c1ccccc1C(=O)C3(C)C)C2` (stereo not drawn) [compound 278], in assay [1], the “M4 Activity” value was “xx (activity was measured to be between 0.1 μM and 1.0 μM)”; the Emax lay in the range of 65 to 85%. In addition, in assay [2], the “M1 Activity” value is “xx (activity was measured to be between 0.1 μM and 1.0 μM)”; the Emax was in the range of 65 to 85%.
As for `CC(=O)N1CC2(CCN(C3CCN(C(=O)O[C@@H]4CCOC4)CC3)CC2)c2cc(C)ccc21` [compound 279], in assay [1], the “M4 Activity” value was “xx (activity was measured to be between 0.1 μM and 1.0 μM)”; the Emax is under 65%. In addition, in assay [2], the “M1 Activity” value is “xx (activity was measured to be between 0.1 μM and 1.0 μM)”; the Emax was under 65%.
Consider `CC(=O)N[C@H]1CC2(CCN(C3CCC(C)CC3)CC2)c2ccccc21` (stereo partly drawn) [compound 280], for which, in assay [1], the “M4 Activity” value was “x (activity was measured to be greater than 1.0 μM)” and the Emax was in the range of 65 to 85%. Moreover, in assay [2], the “M1 Activity” value is “x (activity was measured to be greater than 1.0 μM)” and the Emax lay in the range of 65 to 85%.
Regarding `CCOC(=O)N1CCC(N2CCC3(CC2)CN(C(=O)C2CCCCC2)c2ccc(F)cc23)CC1` [compound 281], in assay [1], the “M4 Activity” value is “xx (activity was measured to be between 0.1 μM and 1.0 μM)”; the Emax is 65 to 85%. In assay [2], the “M1 Activity” value is “xx (activity was measured to be between 0.1 μM and 1.0 μM)”; the Emax was under 65%.
Consider `CCOC(=O)N1CCC(N2CCC3(CC2)CN(C(=O)C(C)(C)C)c2ccc(F)cc23)CC1` [compound 282], for which, in assay [1], the “M4 Activity” value is “xx (activity was measured to be between 0.1 μM and 1.0 μM)”; the Emax lay in the range of 65 to 85%. For the same compound, in assay [2], the “M1 Activity” value was “xxx (activity was measured to be less than 0.1 μM)” and the Emax was under 65%.
Regarding `CCCOC(=O)N1C2CCC1CC(N1CCC3(CC1)COc1ccc(F)cc13)C2` (stereo not drawn) [compound 283], in assay [1], the “M4 Activity” value is on record as “x (activity was measured to be greater than 1.0 μM)” and the Emax lay in the range of 65 to 85%. In addition, in assay [2], the “M1 Activity” value is “xx (activity was measured to be between 0.1 μM and 1.0 μM)”; the Emax was in the range of 65 to 85%.
